The source of these data is US7642229B2, “Pharmaceutical composition and a product which includes a substituted acryloyl distamycin derivative, an antimicrotubule agent and/or an antimetabolite” (Nerviano Medical Sciences S.r.l., priority 2000, dated 2010).

In this data set the test system is disseminated L1210 murine leukemia. The conditions noted are these: for Tox (number of toxic deaths/number of mice) / ILS % (increase in life span: [(median survival time of treated mice/median survival time of controls) × 100] − 100): L1210 cells 10^5/mouse iv on day 0, PNU 166196 iv + 1.6, 0.78 mg/kg/day; for Tox (number of toxic deaths/number of mice): gemcitabine iv + 1, 15 mg/kg/day; for ILS % (increase in life span: [(median survival time of treated mice/median survival time of controls) × 100] − 100): gemcitabine iv + 1, 15 mg/kg/day (2 h after PNU 166196 administration); for ILS % values: text: gemcitabine 15 mg/kg day +1 after tumor injection, PNU 166196 0.7 mg/kg days +1,6, combination at the same doses and schedule.

With `C=C(Br)C(=O)Nc1cc(C(=O)Nc2cc(C(=O)Nc3cc(C(=O)Nc4cc(C(=O)NCCNC(=N)N)n(C)c4)n(C)c3)n(C)c2)n(C)c1.Cl` [PNU 166196, N-(5-{[(5-{[(5-{[(2-{[amino(imino)methyl]amino}ethyl)amino]carbonyl}-1-methyl-1H-pyrrol-3-yl)amino]carbonyl}-1-methyl-1H-pyrrol-3-yl)amino]carbonyl}-1-methyl-1H-pyrrol-3-yl)-4-[(2-bromoacryloyl)amino]-1-methyl-1H-pyrrole-2-carboxamide hydrochloride], the “Tox (number of toxic deaths/number of mice)” value is listed as 0/10, the “ILS % (increase in life span: [(median survival time of treated mice/median survival time of controls) × 100] − 100)” value worked out at 58% and the ILS % values is 58%. Moreover, the toxicity result (text: gemcitabine alone 15 mg/kg day +1, PNU 166196 alone 0.7 mg/kg days +1,6) is “without toxicity”.

Regarding `Nc1ccn([C@@H]2O[C@H](CO)[C@@H](O)C2(F)F)c(=O)n1` [Gemcitabine, gemcitabine, reference compound], the “Tox (number of toxic deaths/number of mice)” value is recorded as 0/10, the “ILS % (increase in life span: [(median survival time of treated mice/median survival time of controls) × 100] − 100)” value was 50% and the ILS % values came to 50%.
